Data on 17 molecules can be found in patent US8710043B2, “TRPM8 antagonists and their use in treatments” (Amgen Inc., priority 2011, dated 2014).

Experiment [1] relates to icilin induced wet-dog shakes. Nature of the experiment: Inhibition of icilin induced shaking (wet-dog shakes) in rats. In kind it is in vivo. The conditions noted are these: Rattus norvegicus, po; dose 1 mg/kg p.o., 2 h before icilin; male Sprague Dawley rats; shakes counted for 30 min post-icilin. The protocol:
Inhibition of Icilin Induced Shaking in Rats
Example compounds at doses ranging from 0.01 to 3 mg/kg (p.o, suspended in 5% Tween80/Oralplus or suspended in 2% HPMC-1% Tween-80 pH2.2 with MSA, 5 mL/kg) were administered to male Sprague Dawley rats (200-300 g, Harlan, n=6-8/treatment) 2 h before icilin to assess the ability to block the spontaneous wet-dog shake phenomena induced by icilin (i.p., suspended in 100% PEG400 at 0.5 mg/kg, 1 mL/kg or p.o., suspended in 2% HPMC-1% Tween-80 at 3 mg/kg, 2.5 mL/kg). Spontaneous wet-dog shakes were counted manually by two blinded observers or using LABORAS automation (Metris) for 30 min post-icilin.

A further experiment addresses T1, human TRPM8 (Homo sapiens, UniProt Q7Z2W7).
T1 construct: expressed in transfected cells; host or cells: Chinese hamster ovary (CHO) cells, T-REx tetracycline-inducible system, co-transfected with aequorin
Nature of the experiment: Luminescence readout assay for measuring intracellular calcium, icilin activation. The format is cell-based. The conditions noted are these: CHO cells expressing human TRPM8, aequorin luminescence, 1 μM icilin activation; read-out: hTRPM8 IC50. The method in brief:
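The read-out was luminescence reporting intracellular calcium, recorded by a CCD-based luminometer. Compounds were preincubated for 2.5 min before agonist challenge with 1 μM icilin. Human TRPM8 was expressed in a stable T-REx CHO line, induced with 0.5 μg/mL tetracycline the day before.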

Molecules are shown by their SMILES.

T1 sequence (Q7Z2W7 whole entry): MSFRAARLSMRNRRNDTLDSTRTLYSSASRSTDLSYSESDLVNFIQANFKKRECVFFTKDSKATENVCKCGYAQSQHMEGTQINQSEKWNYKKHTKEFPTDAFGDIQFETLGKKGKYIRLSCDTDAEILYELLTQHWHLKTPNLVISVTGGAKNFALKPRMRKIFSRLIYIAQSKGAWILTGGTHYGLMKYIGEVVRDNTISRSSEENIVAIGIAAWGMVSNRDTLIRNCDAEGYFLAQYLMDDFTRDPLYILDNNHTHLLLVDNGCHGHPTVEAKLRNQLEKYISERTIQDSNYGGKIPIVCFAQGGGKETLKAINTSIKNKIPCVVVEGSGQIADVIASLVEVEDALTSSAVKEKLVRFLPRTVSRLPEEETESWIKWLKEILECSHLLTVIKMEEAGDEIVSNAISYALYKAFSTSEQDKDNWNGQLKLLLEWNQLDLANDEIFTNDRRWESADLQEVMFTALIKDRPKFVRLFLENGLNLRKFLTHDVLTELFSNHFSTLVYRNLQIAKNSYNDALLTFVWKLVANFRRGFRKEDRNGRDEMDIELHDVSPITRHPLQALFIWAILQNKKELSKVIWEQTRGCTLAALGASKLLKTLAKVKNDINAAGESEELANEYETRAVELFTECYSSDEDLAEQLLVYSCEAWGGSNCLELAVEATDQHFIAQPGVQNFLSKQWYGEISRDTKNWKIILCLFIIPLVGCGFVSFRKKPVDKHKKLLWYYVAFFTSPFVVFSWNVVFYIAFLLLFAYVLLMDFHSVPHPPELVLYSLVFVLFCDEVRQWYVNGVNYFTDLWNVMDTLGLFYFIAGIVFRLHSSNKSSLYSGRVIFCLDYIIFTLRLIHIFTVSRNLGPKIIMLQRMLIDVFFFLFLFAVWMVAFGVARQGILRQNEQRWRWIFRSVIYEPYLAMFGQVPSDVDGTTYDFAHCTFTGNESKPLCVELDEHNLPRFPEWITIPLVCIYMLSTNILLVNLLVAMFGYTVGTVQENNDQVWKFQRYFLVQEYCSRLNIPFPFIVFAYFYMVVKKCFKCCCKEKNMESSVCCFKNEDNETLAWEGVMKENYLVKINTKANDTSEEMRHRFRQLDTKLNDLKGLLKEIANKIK

As to `O=C(N[C@@H](c1ccc(OC(F)(F)F)cc1F)c1ncccc1F)c1ccc(=O)[nH]c1` [Example 386, (S)-N-((2-fluoro-4-(trifluoromethoxy)phenyl)(3-fluoropyridin-2-yl)methyl)-6-oxo-1,6-dihydropyridine-3-carboxamide 2,2,2-trifluoroacetate], 1 mg/kg produced 97% inhibition in vivo in experiment [1]. In addition, the IC50 on human TRPM8 was determined as 10.5 nM.
For `O=C(N[C@@H](c1ccc(C(F)(F)F)cc1)c1ncccc1F)c1ccc(=O)n(CCO)c1` [Example 370, (S)-N-((3-fluoropyridin-2-yl)(4-(trifluoromethyl)phenyl)methyl)-1-(2-hydroxyethyl)-6-oxo-1,6-dihydropyridine-3-carboxamide] the same measures were 50% and 33.7 nM.
In the same order, the values of `Cc1cc(C(=O)N[C@@H](c2ccc(C(F)(F)F)cc2)c2ncccc2F)c[nH]c1=O` [Example 373, (S)-N-((3-fluoropyridin-2-yl)(4-(trifluoromethyl)phenyl)methyl)-5-methyl-6-oxo-1,6-dihydropyridine-3-carboxamide] are 64% and 20.6 nM.
In the same order, the values of `O=C(N[C@@H](c1ccc(OC(F)(F)F)c(F)c1)c1ncccc1F)c1ccc(=O)n(CCO)c1` [Example 297, (S)-N-((3-fluoro-4-(trifluoromethoxy)phenyl)(3-fluoropyridin-2-yl)methyl)-1-(2-hydroxyethyl)-6-oxo-1,6-dihydropyridine-3-carboxamide] are 78% and 16.8 nM.
`O=C(N[C@@H](c1ccc(C(F)(F)F)cc1)c1ncccc1F)c1ccc2oc(=O)[nH]c2c1` [Example 76, (S)-N-((3-fluoropyridin-2-yl)(4-(tnfluoromethyl)phenyl)methyl)-2-oxo-2,3-dihydrobenzo[d]oxazole-5-carboxamide]: the inhibition in vivo at 1 mg/kg in experiment [1] amounted to 100%. Besides, the concentration for half-maximal inhibition (IC50) on human TRPM8 is 4.5 nM.
In the same order, the values of `C[C@@H](O)Cn1cc(C(=O)N[C@@H](c2ccc(OC(F)(F)F)c(F)c2)c2ncccc2F)ccc1=O` [Example 299, N-((S)-(3-fluoro-4-(trifluoromethoxy)phenyl)(3-fluoropyridin-2-yl)methyl)-1-((R)-2-hydroxypropyl)-6-oxo-1,6-dihydropyridine-3-carboxamide] are 56% and 17.5 nM.
In the same order, the values of `O=C(N[C@@H](c1ccc(OC(F)(F)F)cc1)c1ccccn1)c1ccc2oc(=O)[nH]c2c1` [Example 362, (S)-2-oxo-N-(pyridin-2-yl(4-(trifluoromethoxy)phenyl)methyl)-2,3-dihydrobenzo[d]oxazole-5-carboxamide] are 98% and 4.2 nM.
Regarding `O=C(N[C@@H](c1ccc(OC(F)(F)F)cc1)c1ccccn1)c1ccc(=O)[nH]c1` [Example 377, (S)-6-oxo-N-(pyridin-2-yl(4-(trifluoromethoxy)phenyl)methyl)-1,6-dihydropyridine-3-carboxamide], in experiment [1], testing at 1 mg/kg gave an inhibition in vivo of 94%. Also, the IC50 at human TRPM8 is 20.7 nM.
In turn, `O=C(N[C@@H](c1ccc(OC(F)(F)F)c(F)c1)c1ccccc1F)c1ccc(=O)[nH]c1` [Example 295, (S)-N-((3-fluoro-4-(trifluoromethoxy)phenyl)(2-fluorophenyl)methyl)-6-oxo-1,6-dihydropyridine-3-carboxamide] gave an inhibition in vivo at 1 mg/kg in experiment [1] of 77%. For the same molecule, the half-inhibitory concentration (IC50) on human TRPM8 worked out at 18 nM.
In the same order, the values of `Cn1cc(C(=O)N[C@@H](c2ccc(OC(F)(F)F)c(F)c2)c2ncccc2F)ccc1=O` [Example 103, (S)-N-((3-fluoro-4-(trifluoromethoxy)phenyl)(3-fluoropyridin-2-yl)methyl)-1-methyl-6-oxo-1,6-dihydropyridine-3-carboxamide] are 97% and 7.8 nM.
For `Cn1cc(C(=O)N[C@@H](c2ccc(C(F)(F)F)cc2)c2ncccc2F)ccc1=O` [Example 68, (S)-N-((3-fluoropyridin-2-yl)(4-(trifluoromethyl)phenyl)methyl)-1-methyl-6-oxo-1,6-dihydropyridine-3-carboxamide] the same measures were 100% and 14.2 nM.
For `Cc1cccnc1[C@@H](NC(=O)c1ccc(=O)n(C)c1)c1ccc(OC(F)(F)F)c(F)c1` [Example 348, (S)-N-((3-fluoro-4-(trifluoromethoxy)phenyl)(3-methylpyridin-2-yl)methyl)-1-methyl-6-oxo-1,6-dihydropyridine-3-carboxamide] the same measures were 51% and 15.4 nM.
Molecule `O=C(N[C@@H](c1ccc(OC(F)(F)F)c(F)c1)c1ccccn1)c1ccc(=O)[nH]c1` [Example 293, (S)-N-((3-fluoro-4-(trifluoromethoxy)phenyl)(pyridin-2-yl)methyl)-6-oxo-1,6-dihydropyridine-3-carboxamide] yielded an inhibition in vivo at 1 mg/kg in experiment [1] of 96%. Besides, the IC50 on human TRPM8 came out at 13.7 nM.
In the same order, the values of `O=C(N[C@@H](c1ccc(OC(F)(F)F)c(F)c1)c1ncccc1F)c1ccc2[nH]c(=O)oc2n1` [Example 426, (S)—N-((3-fluoro-4-(trifluoromethoxy)phenyl)(3-fluoropyridin-2-yl)methyl)-2-oxo-1,2-dihydrooxazolo[5,4-b]pyridine-5-carboxamide] are 53% and 9.7 nM.
In the same order, the values of `O=C(N[C@@H](c1ccc(OC(F)(F)F)cc1)c1ncccc1F)c1ccc2oc(=O)[nH]c2c1` [Example 79, (S)-N-((3-fluoropyridin-2-yl)(4-(trifluoromethoxy)phenyl)methyl)-2-oxo-2,3-dihydrobenzo[d]oxazole-5-carboxamide] are 99% and 5.1 nM.
In the same order, the values of `O=C(N[C@@H](c1ccc(OC(F)(F)F)cc1)c1ncccc1F)c1ccc(=O)[nH]c1` [Example 1, (S)-N-((3-fluoropyridin-2-yl)(4-(trifluoromethoxy)phenyl)methyl)-6-oxo-1,6-dihydropyridine-3-carboxamide] are 100% and 9.8 nM.
With `O=C1Cc2cc(C(=O)N[C@@H](c3ccc(OC(F)(F)F)cc3)c3ncccc3F)ccc2N1` [Example 91, (S)-N-((3-fluoropyridin-2-yl)(4-(trifluoromethoxy)phenyl)methyl)-2-oxoindoline-5-carboxamide], the inhibition in vivo at 1 mg/kg in experiment [1] stood at 100%. In addition, the 50% inhibitory concentration (IC50) on human TRPM8 was determined as 13.7 nM.
